In PMC9361549, “High-affinity SOAT1 ligands remodeled cholesterol metabolism program to inhibit tumor growth” (BMC Medicine, 2022):

T1: SOAT1 (Homo sapiens, UniProt P35610)
T1 sequence (P35610 1-550): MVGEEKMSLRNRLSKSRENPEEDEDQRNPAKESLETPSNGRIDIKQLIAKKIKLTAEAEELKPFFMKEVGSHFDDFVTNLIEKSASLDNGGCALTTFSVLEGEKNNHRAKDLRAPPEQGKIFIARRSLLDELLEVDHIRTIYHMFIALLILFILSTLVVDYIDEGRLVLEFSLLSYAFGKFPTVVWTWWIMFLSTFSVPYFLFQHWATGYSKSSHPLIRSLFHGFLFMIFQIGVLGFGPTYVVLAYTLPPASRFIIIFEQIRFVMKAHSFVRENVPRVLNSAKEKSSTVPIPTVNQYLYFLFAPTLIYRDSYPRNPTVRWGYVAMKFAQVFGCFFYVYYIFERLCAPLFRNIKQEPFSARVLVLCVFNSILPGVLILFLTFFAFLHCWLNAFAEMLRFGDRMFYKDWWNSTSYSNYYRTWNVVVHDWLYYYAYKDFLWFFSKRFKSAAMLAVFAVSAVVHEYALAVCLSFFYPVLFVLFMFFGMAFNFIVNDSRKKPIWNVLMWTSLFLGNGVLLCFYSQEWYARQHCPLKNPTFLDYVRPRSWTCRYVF

B1: sterol O-acyltransferase 1 (SOAT1), human, with a carboxy-terminal 6xHis-tag (enzyme, UniProt P35610-1 1-550, looked up)
chain: T1 sequence (P35610 1-550)
notes: sterol O-acyltransferase 1 (SOAT1), human; NCBI ID 6646) cloned into pCAG; no removal of the His-tag is described; also called SOAT1 protein

How the values were obtained:
SOAT1 [1] = biological target: T1, SOAT1; experiment: SPR (Biacore T200, CM5 chip, immobilised SOAT1); format: binding; conditions: PBS running buffer with 5% DMSO; 0.0195 nM to 20 μM
SOAT1 [2] = biological target: T1, SOAT1; experiment: SPR single-concentration screen (Biacore T200, CM5 chip, immobilised SOAT1); format: binding; conditions: 100 nmol/L compound; PBS with 5% DMSO; positive control
[3] = biological target: the molecule itself; experiment: SEC; Superdex 200 10/300 GL in 25 mM Tris pH 8.0, 150 mM NaCl, 0.02% GDN, after nickel affinity purification; fractions checked by SDS-PAGE

| Molecule | KD (SOAT1 [1]) | SPR single-concentration screen (Biacore T200, CM5 chip, immobilised SOAT1) (SOAT1 [2]) | further results |
| --- | --- | --- | --- |
| CN(C)CC[C@H](CSc1ccccc1)Nc1ccc(S(=O)(=O)NC(=O)c2ccc(N3CCN(Cc4ccccc4-c4ccc(Cl)cc4)CC3)cc2)cc1[N+](=O)[O-] [ABT-737] | 7.19 E^−7 M |  |  |
| CCCCCCCCCCC(C)(C)C(=O)Nc1c(OC)cc(OC)cc1OC [CI-976] |  | including three positive controls: avasimibe, nevanimibe, and CI-976 |  |
| CC(C)c1cc(C(C)C)c(CC(=O)NS(=O)(=O)Oc2c(C(C)C)cccc2C(C)C)c(C(C)C)c1 [avasimibe] |  | including three positive controls: avasimibe, nevanimibe, and CI-976 |  |
| Cc1cc(C)c2c(c1)[C@@H](N(Cc1cc(C(F)(F)F)cc(C(F)(F)F)c1)c1nnn(C)n1)CCCN2C[C@H]1CC[C@H](C(=O)O)CC1 [evacetrapib] | 3.91 E^−6 M |  |  |
| Cc1cn(-c2cc(NC(=O)c3ccc(C)c(Nc4nccc(-c5cccnc5)n4)c3)cc(C(F)(F)F)c2)cn1 [nilotinib] | 2.02E^−7 M |  |  |
| B1 |  |  | stoichiometry N [3]: 2 |
